According to ChEMBL document CHEMBL1157568, “Toward biophysical probes for the 5-HT3 receptor: structure-activity relationship study of granisetron derivatives” (J Med Chem, 2010):
Active and inactive are the calls of the source. The rule behind the calls is not given here.

Experiments:
[1] = target: T1, 5-hydroxytryptamine receptor 3A (Homo sapiens, UniProt P46098); experiment: Binding affinity to human 5HT3A receptor in HEK293 cells assessed as cell labeling by confocal microscopy; assay type: cell-based
T1 sequence (P46098 whole entry): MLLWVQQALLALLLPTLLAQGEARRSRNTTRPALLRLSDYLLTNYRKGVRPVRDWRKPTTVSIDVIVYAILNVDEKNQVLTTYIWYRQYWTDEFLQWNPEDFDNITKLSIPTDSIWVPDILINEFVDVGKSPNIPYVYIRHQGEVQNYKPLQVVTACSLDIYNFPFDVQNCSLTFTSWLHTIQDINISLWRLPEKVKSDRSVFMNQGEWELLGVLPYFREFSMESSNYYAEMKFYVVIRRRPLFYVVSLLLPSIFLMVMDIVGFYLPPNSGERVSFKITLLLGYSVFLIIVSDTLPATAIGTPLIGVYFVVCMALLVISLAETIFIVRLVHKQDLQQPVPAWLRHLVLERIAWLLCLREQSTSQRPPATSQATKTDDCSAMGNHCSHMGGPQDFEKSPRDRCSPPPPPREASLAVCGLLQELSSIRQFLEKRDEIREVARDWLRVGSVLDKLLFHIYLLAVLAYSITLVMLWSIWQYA

[2] = target: T2, 5-hydroxytryptamine receptor 3A (Homo sapiens) (UniProt P46098); experiment: Binding affinity to human 5HT3A receptor in HEK293 cells assessed as cell labeling by confocal microscopy in presence of quipazine; assay type: cell-based
T2 sequence (whole entry): T1 sequence (P46098 whole entry)

Ki [1]: 2.8 nM
Activity [2]: Active
Compound: Cc1cc(C)n2c1C=C1C=CC(NCC(=O)NCCCn3nc(C(=O)N[C@H]4C[C@H]5CCC[C@@H](C4)N5C)c4ccccc43)=[N+]1[B-]2(F)F
